Experimental data from patent publication US11306079B2, “3-(5-amino-pyrazin-2-yl)-benzenesulfonamide derivatives and related compounds as PI3K-gamma kinase inhibitors” (Incyte Corporation, priority 2017, dated 2022).
Where a name gives a salt, the structure may show the parent alone.

Columns and labels:
[1] = biological target: PI3Kγ (p110γ) Recombinant Human Protein (Homo sapiens (Human), UniProt P48736); test: PI3K-γ Scintillation Proximity Assay; type: biochemical; details: 20 μM PIP2, 2 μM ATP, 13 nM PI3Kγ, 120 min, room temperature
Source text: Example B. PI3K-γ Scintillation Proximity Assay
(§1) [γ-^33P]ATP (10 mCi/mL) and Wheat Germ Agglutinin (WGA) YSi SPA Scintillation Beads was purchased from Perkin-Elmer (Waltham, Mass.). Lipid kinase substrate, D-myo-Phosphatidylinositol 4,5-bisphosphate (PtdIns(4,5)P2)D (+)-sn-1,2-di-O-octanoylglyceryl, 3-O-phospho linked (PIP2), CAS 204858-53-7, was purchased from Echelon Biosciences (Salt Lake City, Utah). PI3Kγ (p110γ) Recombinant Human Protein was purchased from Life technology (Grand island, NY), ATP, MgCl2, DTT, EDTA, MOPS and CHAPS were purchased from Sigma-Aldrich (St. Louis, Mo.).
(§2) The kinase reaction was conducted in polystyrene 384-well Greiner Bio-one white plate from Thermo Fisher Scientific in a final volume of 25 μL. Inhibitors were first diluted serially in DMSO and added to the plate wells before the addition of other reaction components. The final concentration of DMSO in the assay was 2%. The PI3Kγ assay was carried out at room temperature in 20 mM MOPS, pH 6.7, 10 mM MgCl2, 5 mM DTT and CHAPS 0.03%. Reactions were initiated by the addition of ATP, the final reaction mixture consisted of 20 μM PIP2, 2 μM ATP, 0.5 μCi [γ-^33P] ATP, 13 nM PI3Kγ. Reactions were incubated for 120 min and terminated by the addition of 40 μL SPA beads suspended in quench buffer: 163 mM potassium phosphate pH 7.8, 20% glycerol, 25 mM EDTA. The final concentration of SPA beads is 1.0 mg/mL. After the plate sealing, plates were shaken overnight at room temperature and centrifuged at 1500 rpm for 10 min, the radioactivity of the product was determined by scintillation counting on Topcount (Perkin-Elmer). IC50 determination was performed by fitting the curve of percent of the solvent control activity versus the log of the inhibitor concentration using the GraphPad Prism 6.0 software.

[2] = biological target: PI3Kδ (p110δ/p85α) Recombinant Human Protein (Homo sapiens (Human), UniProt O00329); test: PI3Kδ Scintillation Proximity Assay; type: biochemical; details: 20 μM PIP2, 2 μM ATP, 3.4 nM PI3Kδ, 120 min, room temperature
Source text: Example C. PI3Kδ Scintillation Proximity Assay
as §1, with “PI3Kδ (p110δ/p85α)” for “PI3Kγ (p110γ)”, “Eurofins (St Charles, Mo.).” for “Life technology (Grand island, NY),”
as §2, with “PI3Kδ” for “PI3Kγ”, “3.4” for “13”, “PI3Kδ.” for “PI3Kγ.”

[3] = tested on: Phosphorylated Ribosomal Protein S6 (RPS6) in THP-1 cells; test: THP-1 RPS6 ELISA Assay; type: cell-based; details: Homo sapiens; serum starved THP-1 cells, 2 hours with compound, 10 nM MCP-1 for 15 minutes, Phospho-RPS6 ELISA; read-out: PI3Kγ_THP1_RPS6_ELISA IC50
Method: Example A. THP-1 RPS6 ELISA Assay
To measure the Phosphorylated Ribosomal Protein S6 (RPS6) in cell lysates, THP-1 cells (Human Acute Monocytic Leukemia) are purchased from ATCC (Manassas, Va.) and maintained in RPMI with 10% FBS (Gibco/Life Technologies, Carlsbad, Calif.). For the assay, THP-1 cells are serum starved overnight in RPMI, then plated in RPMI (2×10^5 cells/well in 90 μL) into 96-well flat-bottom tissue culture treated plates (Corning, Corning, N.Y.), in the presence or absence of a concentration range of test compounds. Covered plates are incubated for 2 hours at 37° C., 5% CO2 then treated with or without 10 nM MCP-1 (MYBioSource, San Diego, Calif.) for 15 minutes at 37° C., 5% CO2. Plates are centrifuged at 1600 RPM and supernatants are removed. Cells are lysed in Lysis Buffer (Cell Signaling, Danvers, Mass.) with Protease Inhibitor (Calbiochem/EMD, Germany), PMSF (Sigma, St Louis Mo.), HALTS (Thermo Fisher, Rockford, Ill.) for 30 min on wet ice. Cell lysates are frozen at −80° C. before testing. The lysates are tested in the Human/Mouse/Rat Phospho-RPS6 ELISA (R&D Systems, Inc. Minn, Minn.). The plate is measured using a microplate reader (SpectraMax M5—Molecular Devices, LLC Sunnyvale, Calif.) set to 450 nm with a wavelength correction of 540. IC50 determination is performed by fitting the curve of inhibitor percent inhibition versus the log of the inhibitor concentration using the GraphPad Prism 5.0 software.

Chain of PI3Kγ (p110γ) Recombinant Human Protein (P48736 whole entry): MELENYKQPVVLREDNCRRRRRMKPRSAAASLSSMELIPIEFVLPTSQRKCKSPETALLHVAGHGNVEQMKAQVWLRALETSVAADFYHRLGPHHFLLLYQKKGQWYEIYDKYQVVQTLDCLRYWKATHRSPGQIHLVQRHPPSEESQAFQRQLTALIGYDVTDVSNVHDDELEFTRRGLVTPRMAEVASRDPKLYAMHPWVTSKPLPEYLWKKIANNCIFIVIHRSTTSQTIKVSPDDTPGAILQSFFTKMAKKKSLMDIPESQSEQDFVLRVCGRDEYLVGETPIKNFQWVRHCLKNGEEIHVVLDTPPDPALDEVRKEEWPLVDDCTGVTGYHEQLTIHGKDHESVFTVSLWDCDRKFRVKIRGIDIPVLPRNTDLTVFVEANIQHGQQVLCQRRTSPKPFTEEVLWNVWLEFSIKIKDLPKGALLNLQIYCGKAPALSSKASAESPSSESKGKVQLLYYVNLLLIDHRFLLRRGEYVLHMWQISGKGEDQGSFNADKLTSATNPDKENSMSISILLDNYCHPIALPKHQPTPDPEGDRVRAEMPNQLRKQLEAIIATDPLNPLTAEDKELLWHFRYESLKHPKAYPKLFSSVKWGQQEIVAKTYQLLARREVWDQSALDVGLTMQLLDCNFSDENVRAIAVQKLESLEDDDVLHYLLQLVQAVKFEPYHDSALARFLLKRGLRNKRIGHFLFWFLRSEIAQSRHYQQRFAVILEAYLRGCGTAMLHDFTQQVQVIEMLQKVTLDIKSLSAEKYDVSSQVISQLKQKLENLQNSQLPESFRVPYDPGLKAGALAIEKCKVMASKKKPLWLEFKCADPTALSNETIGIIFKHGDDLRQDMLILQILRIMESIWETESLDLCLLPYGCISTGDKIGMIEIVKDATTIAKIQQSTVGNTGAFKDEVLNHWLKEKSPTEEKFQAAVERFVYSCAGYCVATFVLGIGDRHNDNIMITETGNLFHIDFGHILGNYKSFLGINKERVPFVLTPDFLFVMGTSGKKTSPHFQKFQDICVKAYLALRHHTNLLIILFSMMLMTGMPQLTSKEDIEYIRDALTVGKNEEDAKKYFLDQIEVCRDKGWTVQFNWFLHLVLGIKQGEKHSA
Chain of PI3Kδ (p110δ/p85α) Recombinant Human Protein (O00329 whole entry): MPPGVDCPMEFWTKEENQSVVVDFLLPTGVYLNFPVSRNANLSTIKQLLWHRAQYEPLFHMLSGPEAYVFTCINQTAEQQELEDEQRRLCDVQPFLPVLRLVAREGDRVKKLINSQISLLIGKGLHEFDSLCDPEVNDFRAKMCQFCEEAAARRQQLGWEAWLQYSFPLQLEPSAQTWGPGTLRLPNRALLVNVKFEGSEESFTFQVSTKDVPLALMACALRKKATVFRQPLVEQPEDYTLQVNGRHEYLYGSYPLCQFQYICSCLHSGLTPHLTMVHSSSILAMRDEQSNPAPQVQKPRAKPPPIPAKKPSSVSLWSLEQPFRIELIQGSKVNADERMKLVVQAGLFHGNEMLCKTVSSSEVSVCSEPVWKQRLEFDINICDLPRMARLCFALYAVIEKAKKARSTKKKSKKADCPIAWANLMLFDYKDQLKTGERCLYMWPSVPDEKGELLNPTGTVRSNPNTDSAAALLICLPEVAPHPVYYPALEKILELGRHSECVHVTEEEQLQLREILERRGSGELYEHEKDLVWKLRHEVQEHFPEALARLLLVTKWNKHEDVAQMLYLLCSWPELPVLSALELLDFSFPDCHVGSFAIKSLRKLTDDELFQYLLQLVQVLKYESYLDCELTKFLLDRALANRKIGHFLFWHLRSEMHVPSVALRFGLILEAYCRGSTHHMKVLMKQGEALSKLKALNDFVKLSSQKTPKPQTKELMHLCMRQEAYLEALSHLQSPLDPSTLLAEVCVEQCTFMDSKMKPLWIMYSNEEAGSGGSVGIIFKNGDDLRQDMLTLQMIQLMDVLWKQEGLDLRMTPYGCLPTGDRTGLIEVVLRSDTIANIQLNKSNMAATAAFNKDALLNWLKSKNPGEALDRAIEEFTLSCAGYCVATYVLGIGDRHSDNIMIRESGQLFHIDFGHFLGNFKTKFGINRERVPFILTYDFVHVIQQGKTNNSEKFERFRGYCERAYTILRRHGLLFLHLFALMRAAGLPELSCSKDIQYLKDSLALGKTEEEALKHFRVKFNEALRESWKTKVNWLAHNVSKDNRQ
Chain of PI3Kδ (p110δ/p85α) Recombinant Human Protein (P27986 whole entry partner): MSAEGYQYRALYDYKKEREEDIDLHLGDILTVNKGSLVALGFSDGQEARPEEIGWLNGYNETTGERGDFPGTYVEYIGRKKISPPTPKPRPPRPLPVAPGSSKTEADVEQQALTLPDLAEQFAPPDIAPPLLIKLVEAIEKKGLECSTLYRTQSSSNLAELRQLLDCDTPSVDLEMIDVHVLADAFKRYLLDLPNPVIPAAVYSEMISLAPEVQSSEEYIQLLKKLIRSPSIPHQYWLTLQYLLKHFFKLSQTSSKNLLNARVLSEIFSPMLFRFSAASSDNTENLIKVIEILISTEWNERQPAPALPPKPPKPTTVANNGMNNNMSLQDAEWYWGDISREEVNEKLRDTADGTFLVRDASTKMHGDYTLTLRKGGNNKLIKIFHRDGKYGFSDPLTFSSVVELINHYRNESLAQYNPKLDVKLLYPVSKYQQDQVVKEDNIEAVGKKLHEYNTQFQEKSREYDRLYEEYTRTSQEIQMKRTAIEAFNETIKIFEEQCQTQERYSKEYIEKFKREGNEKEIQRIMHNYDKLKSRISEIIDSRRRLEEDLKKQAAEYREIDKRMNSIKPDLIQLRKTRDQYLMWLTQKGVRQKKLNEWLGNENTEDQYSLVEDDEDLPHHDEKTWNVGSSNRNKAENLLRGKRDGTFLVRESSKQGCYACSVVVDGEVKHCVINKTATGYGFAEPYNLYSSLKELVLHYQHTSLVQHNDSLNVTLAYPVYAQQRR

SMILES	IC50 [1]	IC50 [2]	IC50 [3]
Cc1ncc(-c2nc(-c3cc(S(=O)(=O)NC45CC(C#N)(C4)C5)ccc3C)cnc2N)s1 [Example 1, 3-(5-Amino-6-(2-methylthiazol-5-yl)pyrazin-2-yl)-N-(3-cyanobicyclo[1.1.1]pentan-1-yl)-4-methylbenzenesulfonamide Trifluoroacetate Salt]	≤ 100 nM	≤ 100 nM	≤ 100 nM
Cc1ncc(-c2nc(-c3cc(S(=O)(=O)NC45CCC(C#N)(C4)C5)ccc3C)cnc2N)s1 [Example 2, 3-(5-Amino-6-(2-methylthiazol-5-yl)pyrazin-2-yl)-N-(4-cyanobicyclo[2.1.1]hexan-1-yl)-4-methylbenzenesulfonamide trifluoroacetate salt]	≤ 100 nM	≤ 100 nM	≤ 100 nM
Cc1ncc(-c2nc(-c3cc(S(=O)(=O)NC45CC(CO)(C4)C5)ccc3C)cnc2N)s1 [Example 3, 3-(5-Amino-6-(2-methylthiazol-5-yl)pyrazin-2-yl)-N-(3-(hydroxymethyl)bicyclo[1.1.1]pentan-1-yl)-4-methylbenzenesulfonamide trifluoroacetate salt]	≤ 100 nM	≤ 100 nM	≤ 100 nM
Cc1ncc(-c2nc(-c3cc(S(=O)(=O)NC45COC(CO)(C4)C5)ccc3C)cnc2N)s1 [Example 4, 3-(5-Amino-6-(2-methylthiazol-5-yl)pyrazin-2-yl)-N-(1-(hydroxymethyl)-2-oxabicyclo[2.1.1]hexan-4-yl)-4-methylbenzenesulfonamide trifluoroacetate salt]	≤ 100 nM	≤ 100 nM	≤ 100 nM
Cc1ccc(S(=O)(=O)NC23CCC(CO)(CC2)OC3)cc1-c1cnc(N)c(-c2ccncc2C#N)n1 [Example 22, 3-(5-Amino-6-(3-cyanopyridin-4-yl)pyrazin-2-yl)-N-(1-(hydroxymethyl)-2-oxabicyclo[2.2.2]octan-4-yl)-4-methylbenzenesulfonamide trifluoroacetate salt]	< 2000 nM	≥ 2000 nM	
CNC(=O)C12CC(NS(=O)(=O)c3ccc(C)c(-c4cnc(N)c(-n5cncn5)n4)c3)(C1)C2 [Example 32, 3-(3-(5-Amino-6-(1H-1,2,4-triazol-1-yl)pyrazin-2-yl)-4-methylphenylsulfonamido)-N-methylbicyclo[1.1.1]pentane-1-carboxamide trifluoroacetate Salt]	≤ 100 nM	< 2000 nM	
Cc1ccc(S(=O)(=O)NC23CC(C(=O)N(C)C)(C2)C3)cc1-c1cnc(N)c(-n2cncn2)n1 [Example 33, 3-(3-(5-Amino-6-(1H-1,2,4-triazol-1-yl)pyrazin-2-yl)-4-methylphenylsulfonamido)-N,N-dimethylbicyclo[1.1.1]pentane-1-carboxamide trifluoroacetate salt]	≤ 100 nM	≤ 500 nM	
Cc1ccc(S(=O)(=O)NC23CC(C#N)(C2)C3)cc1-c1cnc(N)c(-c2nn[nH]n2)n1 [Example 36, 3-(5-Amino-6-(2H-tetrazol-5-yl)pyrazin-2-yl)-N-(3-cyanobicyclo[1.1.1]pentan-1-yl)-4-methylbenzenesulfonamide Trifluoroacetate Salt]	≤ 100 nM	≥ 2000 nM	
Cc1ccc(S(=O)(=O)NC23CCC(C#N)(C2)C3)cc1-c1cnc(N)c(-c2nn[nH]n2)n1 [Example 37, 3-(5-Amino-6-(2H-tetrazol-5-yl)pyrazin-2-yl)-N-(4-cyanobicyclo[2.1.1]hexan-1-yl)-4-methylbenzenesulfonamide Trifluoroacetate Salt]	≤ 100 nM	≥ 2000 nM	
[2H]C([2H])([2H])c1ccc(S(=O)(=O)NC23CC(CO)(C2)C3)cc1-c1cnc(N)c(-n2nccn2)n1 [Example 51, 3-(5-Amino-6-(2H-1,2,3-triazol-2-yl)pyrazin-2-yl)-N-(3-(hydroxymethyl)bicyclo[1.1.1]pentan-1-yl)-4-(methyl-d3)benzenesulfonamide Trifluoroacetate Salt]	≤ 100 nM	< 2000 nM	
[2H]C([2H])([2H])c1ccc(S(=O)(=O)NC23CNC(C2)C3)cc1-c1cnc(N)c(-n2nccn2)n1 [Example 52, 3-(5-Amino-6-(2H-1,2,3-triazol-2-yl)pyrazin-2-yl)-N-(2-azabicyclo[2.1.1]hexan-4-yl)-4-(methyl-d3)benzenesulfonamide Trifluoroacetate Salt]	≤ 500 nM	≤ 500 nM	
O=C(O)C(F)(F)F.[2H]C([2H])([2H])c1ccc(S(=O)(=O)NC23CNC(C2)C3)cc1-c1cnc(N)c(-n2cncn2)n1 [Example 53, 3-(5-Amino-6-(1H-1,2,4-triazol-1-yl)pyrazin-2-yl)-N-(2-azabicyclo[2.1.1]hexan-4-yl)-4-(methyl-d3)benzenesulfonamide trifluoroacetate salt]	≤ 100 nM	≤ 500 nM	
[2H]C([2H])([2H])c1ccc(S(=O)(=O)NC23CC(C2)N(C(C)C)C3)cc1-c1cnc(N)c(-n2cncn2)n1 [Example 60, 3-(5-Amino-6-(1H-1,2,4-triazol-1-yl)pyrazin-2-yl)-N-(2-isopropyl-2-azabicyclo[2.1.1]hexan-4-yl)-4-(methyl-d3)benzenesulfonamide Trifluoroacetate Salt]	≤ 100 nM	≤ 500 nM	
[2H]C([2H])([2H])c1ccc(S(=O)(=O)NC23CCC(C#N)(C2)C3)cc1-c1cnc(N)c(-c2cncnc2)n1 [Example 64, 3-(5-Amino-6-(pyrimidin-5-yl)pyrazin-2-yl)-N-(4-cyanobicyclo[2.1.1]hexan-1-yl)-4-(methyl-d3)benzenesulfonamide trifluoroacetate salt]			≤ 100 nM
Cc1ccc(S(=O)(=O)NC23COC(CO)(C2)C3)cc1-c1cnc(N)c(-c2cn(C)nc2C)c1 [Example 84, 3-(6-amino-5-(1,3-dimethyl-1H-pyrazol-4-yl)pyridin-3-yl)-N-(1-(hydroxymethyl)-2-oxabicyclo[2.1.1]hexan-4-yl)-4-methylbenzenesulfonamide]	≤ 500 nM	≤ 500 nM	
